Experimental data reported in patent publication US20080255117A1, “SULFONYLTRYPTOPHANOLS” (priority 2007, published 2008).
pIC50: −log10 of the molar value.

Molecular target: T1, human FSH receptor (Homo sapiens, UniProt P23945)
T1 construct: expressed in transfected cells; host or cells: CHO cells (hFSHR clone 16)
T1 sequence (P23945 18-695): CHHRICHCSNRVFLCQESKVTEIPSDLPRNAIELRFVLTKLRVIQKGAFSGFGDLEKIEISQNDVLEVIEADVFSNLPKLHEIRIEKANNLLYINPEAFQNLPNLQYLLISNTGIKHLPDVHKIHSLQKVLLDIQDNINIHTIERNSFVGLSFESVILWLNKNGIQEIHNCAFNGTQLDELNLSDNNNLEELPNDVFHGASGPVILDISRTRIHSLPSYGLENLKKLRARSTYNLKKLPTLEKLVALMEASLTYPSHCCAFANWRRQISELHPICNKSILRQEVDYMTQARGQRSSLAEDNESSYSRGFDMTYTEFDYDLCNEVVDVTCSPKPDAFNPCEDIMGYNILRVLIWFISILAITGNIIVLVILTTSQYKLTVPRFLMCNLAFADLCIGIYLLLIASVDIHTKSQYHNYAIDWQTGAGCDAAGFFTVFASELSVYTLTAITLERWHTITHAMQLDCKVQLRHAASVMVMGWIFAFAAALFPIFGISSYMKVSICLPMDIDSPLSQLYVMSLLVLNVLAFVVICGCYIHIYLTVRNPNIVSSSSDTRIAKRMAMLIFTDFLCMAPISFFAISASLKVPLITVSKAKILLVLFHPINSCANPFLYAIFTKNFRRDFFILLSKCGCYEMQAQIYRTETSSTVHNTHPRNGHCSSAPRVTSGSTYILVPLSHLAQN
Test: HTRF assay for measuring cAMP in cells (FSH antagonism)
Assay type: cell-based
Conditions: FSH antagonistic effect in the HTRF assay; hFSHR clone 16 cells (CHO cells stably transfected with the human FSH receptor); in the presence of 1e-9 mol/l hFSH
Experimental: HTRF Assay for Measuring cAMP in Cells
The method is based on a competitive immunoassay between native cAMP, which has been produced by the cells, and cAMP which is labelled with cAMPD2 conjugate. The tracer binding was visualized by a monoclonal antibody, anti-cAMP labelled with cryptate [HTRF=homogeneous time-resolved fluorescence].
The specific signal is inversely proportional to the cAMP concentration of the samples employed.
The 665 nm/620 nm fluorescence ratio was evaluated.
The following material was used: 96-well plates for the tissue culture, 96-well plates with black edge and black base (e.g. Fluotrac 600 from Greiner), 96-well plates for the substance dilutions of polypropylene and cAMP Femtomolar (4000 wells Kit, CIS Bio International # 62AM5PEJ).
The following reagents were used: BSA (bovine serum albumin) Fraction V protease-free, IBMX (3-isobutyl-1-methylxanthine), hFSH (human follicle stimulating hormone), Triton X-100 analytical grade, potassium fluoride analytical grade, G 418 (Geneticin) and Accutase.
Buffer 1 (washing and testing buffer) contained PBS, 1 mM CaCl2, 1 mM MgCl2, 0.2% glucose; 0.1% BSA, 1 mM IBMX. […]
The values of the well ratio were averaged and then entered directly in SigmaPlot versus the concentrations. The maximum and minimum values were determined for each plate, and half the difference is to be regarded as IC50.

SMILES | pIC50
O=S(=O)(N[C@@H](CO)Cc1c[nH]c2ccccc12)c1cc(-c2ccc3ncccc3c2)cc2c1OCC2 [Example 39, 5-Quinolin-6-yl-2,3-dihydro-benzofuran-7-sulfonic acid [(R)-2-hydroxy-1-(1H-indol-3-ylmethyl)-ethyl]-amide] | 5.30
N#CCc1ccc(-c2cc3c(c(S(=O)(=O)N[C@@H](CO)Cc4c[nH]c5ccccc45)c2)OCC3)cc1 [Example 52, 5-(4-Cyanomethyl-phenyl)-2,3-dihydro-benzofuran-7-sulfonic acid [(R)-2-hydroxy-1-(1H-indol-3-ylmethyl)-ethyl]-amide] | 5.00
